Experimental data as given in PubChem BioAssay (NCI).
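Each compound was tested at five concentrations against cells in 96-well plates for 48 hours. GI50 = concentration required for 50% inhibition of growth. TGI denotes the concentration required for complete inhibition of growth.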

Tests used:
Assay in all cases: NCI-60 cell line screen, 48 h
786-0 renal = system: 786-0 renal
SF-268 CNS = system: SF-268 CNS
HOP-62 NSCLC = system: HOP-62 NSCLC
NCI-H23 lung = system: NCI-H23 lung
HT29 colon = system: HT29 colon
EKVX NSCLC = system: EKVX NSCLC
SF-539 CNS = system: SF-539 CNS
HCT-15 colon = system: HCT-15 colon
CAKI-1 renal = system: CAKI-1 renal
SNB-75 CNS = system: SNB-75 CNS

SMILES	TGI (786-0 renal)	TGI (SF-268 CNS)	TGI (HOP-62 NSCLC)	TGI (NCI-H23 lung)	TGI (HT29 colon)	TGI (EKVX NSCLC)	TGI (SF-539 CNS)	TGI (HCT-15 colon)	GI50 (786-0 renal)	GI50 (SF-268 CNS)	GI50 (CAKI-1 renal)	TGI (CAKI-1 renal)	GI50 (HOP-62 NSCLC)	GI50 (NCI-H23 lung)	GI50 (HT29 colon)	GI50 (SF-539 CNS)	GI50 (HCT-15 colon)	GI50 (SNB-75 CNS)	TGI (SNB-75 CNS)	GI50 (EKVX NSCLC)
Cn1c2c(c3ccccc31)CCN(CCN1CCN(c3cccc(Cl)c3)CC1)C2=O	> 100 µM	> 100 µM	> 100 µM	> 100 µM	41 µM	> 100 µM	> 100 µM	> 100 µM	–	–	–	–	–	–	–	–	–	–	–	–
O=S(=O)(CCCl)c1ccc(Cl)cc1	21.4 µM	10.8 µM	30.6 µM	20.6 µM	13.8 µM	–	7.08 µM	12.4 µM	6.41 µM	2.87 µM	2.9 µM	13.2 µM	15.7 µM	4.79 µM	3.23 µM	2.46 µM	2.92 µM	2.4 µM	29.8 µM	–
Oc1ccccc1-c1nn(CNc2ccccc2Cl)c(=S)o1	> 100 µM	> 100 µM	> 100 µM	> 100 µM	63.8 µM	> 100 µM	97.7 µM	38.7 µM	> 100 µM	> 100 µM	> 100 µM	> 100 µM	> 100 µM	> 100 µM	21 µM	37.7 µM	17.9 µM	–	–	> 100 µM
CSC(=NCCc1c[nH]c2ccccc12)NC#N	> 100 µM	> 100 µM	> 100 µM	> 100 µM	> 100 µM	> 100 µM	> 100 µM	> 100 µM	–	–	–	–	–	–	–	–	–	–	> 100 µM	–
CC(C)(C)OC(=O)NCCCCCCCn1c2c(c3ccccc3c1=O)C(=O)c1ccccc1-2	55.4 µM	93.6 µM	–	> 100 µM	> 100 µM	> 100 µM	38.8 µM	> 100 µM	23.2 µM	25.4 µM	32.2 µM	73 µM	–	26 µM	37.6 µM	20.7 µM	41.7 µM	21.5 µM	49.7 µM	> 100 µM
Nc1ccc(/C=C/C(=O)NCc2cc3cc(-c4ccc(C(=O)N5CCC(F)(F)CC5)cc4)cc(-c4ccc(F)cc4)c3o2)cn1	> 100 µM	> 100 µM	> 100 µM	> 100 µM	> 100 µM	> 100 µM	> 100 µM	> 100 µM	40.3 µM	> 100 µM	–	–	> 59.3 µM	> 100 µM	1.89 µM	0.118 µM	0.679 µM	> 100 µM	> 100 µM	> 100 µM
O=S(=O)(NCCCNc1nccc(-c2c(-c3ccc(F)cc3)nc3sccn23)n1)c1ccc2ccccc2c1	> 100 µM	> 100 µM	> 100 µM	> 100 µM	7.58 µM	–	> 100 µM	> 100 µM	6.19 µM	6.46 µM	5.47 µM	> 100 µM	> 100 µM	15.1 µM	2.4 µM	> 100 µM	3.26 µM	5.22 µM	> 100 µM	–
O=c1cc(/C=C/c2ccccc2)[nH]c2cc3c(cc12)OCO3	12.7 µM	30.4 µM	14.5 µM	13.3 µM	5.58 µM	25 µM	4.69 µM	8.23 µM	–	7.12 µM	–	–	–	–	–	–	–	–	40.2 µM	–
c1ccc2[nH]c(-c3ccc(Nc4nc(N5CCCCC5)nc(N5CCOCC5)n4)cc3)nc2c1	3.21 µM	20.1 µM	4.32 µM	15.7 µM	5.56 µM	> 100 µM	5.75 µM	4.38 µM	1.54 µM	3.21 µM	–	–	1.92 µM	3.05 µM	2.44 µM	2.14 µM	1.88 µM	2.1 µM	16.9 µM	2.68 µM
O=C(O)[C@@H](Cc1ccc2ccccc2c1)NC(=O)n1c2ccccc2c2ccccc21	12.2 µM	36.2 µM	15.3 µM	26.7 µM	8.33 µM	62.2 µM	6.61 µM	28.6 µM	0.708 µM	3.77 µM	3.54 µM	46.2 µM	3.21 µM	3.72 µM	3.08 µM	1.99 µM	3.29 µM	–	–	5.56 µM
COc1ccc(C(=O)NCCN(C)C)c2nc3ccccc3nc12	> 59.9 µM	–	9.06 µM	17.9 µM	15.1 µM	33.2 µM	17.6 µM	24.4 µM	–	–	–	> 36.2 µM	–	–	–	–	–	–	78 µM	–
c1ccc(N2N=C(c3ccco3)CC2c2ccco2)cc1 (stereo unspecified)	> 100 µM	> 100 µM	> 100 µM	> 100 µM	> 100 µM	> 100 µM	> 100 µM	> 100 µM	–	–	–	–	–	–	–	–	–	–	> 100 µM	–
O=[N+]([O-])c1ccc(Sc2c3ccccc3nc3cc(Cl)ccc23)cc1	> 100 µM	> 100 µM	> 100 µM	> 100 µM	> 100 µM	> 100 µM	–	> 100 µM	> 100 µM	> 100 µM	> 100 µM	> 100 µM	> 100 µM	> 100 µM	–	–	> 100 µM	–	> 100 µM	> 100 µM
O=C(N/N=C/c1ccccc1O)c1ccccc1	1.83 µM	> 100 µM	8.61 µM	> 100 µM	> 100 µM	> 100 µM	66.8 µM	> 100 µM	0.339 µM	1.07 µM	–	–	1.61 µM	4.92 µM	3.43 µM	3.19 µM	0.893 µM	3.5 µM	> 100 µM	2 µM
Nc1ncnc2c1ncn2CC(O)CO (stereo unspecified)	> 100 µM	> 100 µM	–	> 100 µM	> 100 µM	> 100 µM	> 100 µM	> 100 µM	–	–	–	> 100 µM	–	–	–	–	–	–	> 100 µM	–
CCCCN(CCCC)C(=O)/C(CC(=O)c1cccc2ccccc12)=N\NC(=O)c1cc2ccccc2cc1O	77.3 µM	70.9 µM	39.9 µM	45.6 µM	57.7 µM	50.9 µM	–	–	–	–	–	–	–	–	–	–	–	–	92.7 µM	–
